Earlier results, collected in patent US20110117194A1, “PHARMACEUTICAL FORMULATION CONTAINING ANGIOTENSIN-II RECEPTOR BLOCKER” (priority 2008, published 2011).

CCCCc1nc(Cl)c(CO)n1Cc1ccc(-c2ccccc2-c2nn[nH]n2)cc1 [losartan]
time to peak blood concentration (active losartan molecule released into blood): ≤ 1 h
plasma clearance rate (in vivo): 600 mL/min
